Marks after values point to notes of the source that are not given here.

The results in this text go back to patent US11725027B2, “Hypersensitive response elicitor-derived peptides and use thereof” (priority 2016, dated 2023).

The subject of assay [1] is Nicotiana tabacum cultivar xanthi plants. Kind of assay: Hypersensitive Response (HR) induction in tobacco leaves. Set-up: key to HR: Plants are considered HR-positive (“HR+”) if they exhibit wide-spread macroscopic cell death visible to the naked eye, accompanied by wilting and browning of the affected tissue within 48 hours; Plants are considered HR-negative (“HR−”) if they exhibit no discernible wilting or tissue death observable by naked eye. The following applies: for HR: tobacco leaf infused with 500, 250, 125, 62.5, 31.25 μg/ml peptide solutions, scored over 48 hours; for elicitation of HR, effect of Met to Ala mutations: tobacco. The assay is classed as in vivo. An excerpt: A property of a peptide to elicit a hypersensitive response, or not, upon infiltration or application of the peptide to plant tissues can be measured by applying the peptide in dry powder form or in solution form to a plant, particularly though not exclusively a plant leaf.
The minimal eliciting sequence derived from was developed based on the sequence of the hrex gene from Xanthomonas campestris pv. pelargonii. A number of truncated and mutated sequences were synthesized and tested for Hypersensitive Response induction (results in Table 4). HR in tobacco was tested as described in Wei, Science 257:85-88 (1992), which is hereby incorporated by reference in its entirety. Briefly, peptides were dissolved at a concentration of 500 μg/ml in aqueous solution. Four serial dilutions were performed with an equal volume of water, yielding peptide samples at 500, 250, 125, 62.5, 31.25 μg/ml peptide solutions. Nicotiana tabacum cultivar xanthi plants were used at 5-7 weeks old (preflowering). Leaves were lightly punctured with a toothpick in a middle leaf panel. Peptide solutions were then infused via needle-less syringe into the wound, filling the panel. Each peptide sample was infused into a leaf of 2 different plants. The leaves were observed and scored over the next 48 hours for withering and browning, lesions typical of programmed cell death. These studies had […] main goals: (1) determine the minimal sequence sufficient for HR elicitation (2) increase the solution stability of the peptides; (3) make disruptive mutations to verify the residues which are most important for HR elicitation; (4) make conservative mutations to identify the degree of specificity for particular amino acids.

In assay [2] the test system is tobacco mosaic virus (TMV). Kind of assay: Induction of resistance to tobacco mosaic virus in tobacco. The assay is classed as in vivo. The conditions noted are these: % decline in TMV lesions vs UTC, spray 20 ug/ml; for Effectiveness Covered (%): covered leaf (systemic response); for Effectiveness Uncovered (%): uncovered leaf (local response). Here is the method: Peptides were tested for the induction of resistance to tobacco mosaic virus (TMV) in tobacco. Briefly, three tobacco plants at 6-8 weeks old were selected per group (samples and controls). The bottom-most leaf of the plant was covered and the plant was sprayed with a solution of water (untreated control—UTC), peptide, or Proact (positive control). The spray was applied until the leaves were fully wetted, indicated by liquid dripping from the leaves. The plants were then allowed to dry and the leaf covering was removed.
Three days post-treatment, the previously-covered leaf and a leaf on the opposite side of the plant were then lightly dusted with diatomaceous earth and 20 ul of a 1.7 ug/ml solution of purified tobacco mosaic virus was applied. The TMV solution was then spread across the leaf surface by lightly rubbing solution and the diatomaceous earth across the surface of the leaves. Two minutes after inoculation, the diatomaceous earth was rinsed off the leaves with water. 3 days after TMV inoculation, the leaves were scored based on the number of TMV lesions observed. The leaf was also scored for signs of the hypersensitive response, including yellowing and wilting of the affected leaves.
Effectiveness described in Table 6 refers to the % decline in TMV lesions on treated vs UTC plants. A reduction of TMV on covered leaves indicates a systemic immune response in the plant while reduction on uncovered leaves indicates a local response. Asterisks indicate that the P-value derived from a T-test was <0.05.

On to AEQGSSQLDLLLMFIMMMLQQ [Peptide P5-74], for which the HR result in assay [1] is listed as “+”.

In the case of “ITPDGQGGGQIGDNPQLDLLLAFIAAALQQ [Peptide P5-80]”, in assay [1], the HR entry was “Weak+”.

Consider “ITPDGQGGGQIGDNPQLDLLLMFIMMMLQQ [Peptide P5-79]”, for which the HR entry in assay [1] is given as “Strong+”.

LDLLLAFIEEELEEEE [Peptide P5-10]: the HR result in assay [1] is on record as “-”.

On to “NFGTPDSTVQNPQDASKPNQLDLLLAFIAAALQQ [Peptide P5-78]”, for which the HR entry in assay [1] is listed as “Weak+”.

As to “NFGTPDSTVQNPQDASKPNQLDLLLMFIMMMLQQ [Peptide P5-77]”, the HR result in assay [1] is given as “Weak+”.

Regarding SAGSEQQEDELLAFIAAALQQ [Peptide P5-51], the HR result in assay [1] is on record as “-”.

As for SAGSEQQEDELLMFIMMMLQQ [Peptide P5-52], the HR entry in assay [1] was “-”.

Consider SAGSEQQEDLLLAFIAAALQQ [Peptide P5-49], for which the HR entry in assay [1] is given as “-”.

On to SAGSEQQEDLLLAFIALQQ [Peptide P5-61], for which the HR result in assay [1] was “-”.

As to SAGSEQQEDQLLLMFIMMMLQQ [Peptide P5-53], the HR result in assay [1] was “-”.

For the sequence SAGSEQQLDELLAFIAAALQQ [Peptide P5-50], the HR result in assay [1] is given as “Weak+”.

Turning to SAGSEQQLDELLAFIAAALQQ [Peptide P5-72], the HR result in assay [1] is listed as “-”.

In the case of SAGSEQQLDELLAFIALQQ [Peptide P5-62], the HR result in assay [1] is “-”.

As for SAGSEQQLDELLMFIMMMLQQ [Peptide P5-36], in assay [1], the HR entry is reported as “+”.

For the sequence SAGSEQQLDLELMFIMMMLQQ [Peptide P5-37], in assay [1], the HR entry is “-”.

Turning to SAGSEQQLDLLEMFIMMMLQQ [Peptide P5-38], the HR entry in assay [1] was “-”.

In the case of SAGSEQQLDLLLAEIAAALQQ [Peptide P5-69], in assay [1], the HR result is on record as “-”.

In the case of SAGSEQQLDLLLAEIALQQ [Peptide P5-64], the HR entry in assay [1] was “-”.

Regarding SAGSEQQLDLLLAFIAAAL [Peptide P5-6], in assay [1], the HR result is reported as “-”. In addition, in assay [2], the “Effectiveness Covered (%)” value amounted to 36% and the “Effectiveness Uncovered (%)” value is recorded as 62%.

Take SAGSEQQLDLLLAFIAAALQQ [Peptide P5-3]: in assay [1], the “elicitation of HR, effect of Met to Ala mutations” value was “do not affect the elicitation of HR” and the HR entry is listed as “+”. For the same sequence, in assay [2], the “Effectiveness Covered (%)” value is 70* % and the “Effectiveness Uncovered (%)” value is reported as 55%.

Take SAGSEQQLDLLLAFIAAELQQ [Peptide P5-68]: the HR entry in assay [1] is “-”.

Turning to SAGSEQQLDLLLAFIAEALQQ [Peptide P5-66], in assay [1], the HR entry is listed as “Weak+”.

Consider SAGSEQQLDLLLAFIEAALQQ [Peptide P5-67], for which the HR entry in assay [1] was “-”.

Regarding SAGSEQQLDLLLAFIEALQQ [Peptide P5-65], in assay [1], the HR result is “-”.

Regarding SAGSEQQLDLLLEFIAAALQQ [Peptide P5-70], the HR entry in assay [1] is on record as “-”.

As to SAGSEQQLDLLLEFIALQQ [Peptide P5-63], in assay [1], the HR entry is “-”.

Regarding SAGSEQQLDLLLEFIMMMLQQ [Peptide P5-39], in assay [1], the HR entry was “Strong+”.

Regarding SAGSEQQLDLLLMEIMMMLQQ [Peptide P5-40], in assay [1], the HR result is “Strong+”.

For SAGSEQQLDLLLMFEMMMLQQ [Peptide P5-41], in assay [1], the HR entry is “-”.

In the case of SAGSEQQLDLLLMFIAAALQQ [Peptide P5-2], in assay [1], the “elicitation of HR, effect of Met to Ala mutations” value is reported as “do not affect the elicitation of HR” and the HR result is “+”. In addition, in assay [2], the “Effectiveness Covered (%)” value is 90* % and the “Effectiveness Uncovered (%)” value is reported as 25%.

In the case of SAGSEQQLDLLLMFIEMMLQQ [Peptide P5-42], in assay [1], the HR entry is “Weak+”.

Take SAGSEQQLDLLLMFIMEMLQQ [Peptide P5-43]: the HR entry in assay [1] is “Strong+”.

Turning to SAGSEQQLDLLLMFIMMELQQ [Peptide P5-44], the HR entry in assay [1] is “Weak+”.

Consider SAGSEQQLDLLLMFIMMMEQQ [Peptide P5-45], for which, in assay [1], the HR entry is recorded as “-”.

For the sequence SAGSEQQLDQELLMFIMMMLQQ [Peptide P5-54], the HR result in assay [1] is listed as “-”.

In the case of SAGSEQQLDQLLLAFIAAALQQ [Peptide P5-55], the HR result in assay [1] is given as “-”.

Turning to SAGSEQQLDQLLLMFIMMMLQQ [Peptide P5a], the HR entry in assay [1] was “+”.

As for SAGSEQQLELLLAFIAAALQQ [Peptide P5-4], the HR result in assay [1] was “+”. For the same sequence, in assay [2], the “Effectiveness Covered (%)” value is listed as 98* % and the “Effectiveness Uncovered (%)” value is recorded as 97* %.

In the case of SEEEEELDLLLAFIAAAL [Peptide P5-7], in assay [1], the HR result is reported as “-”. Further, in assay [2], the “Effectiveness Covered (%)” value was 91* % and the “Effectiveness Uncovered (%)” value was found to be 71%.

Regarding SEEEEELDLLLAFIAAALA [Peptide P5-17], the HR entry in assay [1] is “-”.

As to SEEEEELDLLLAFIAAALE [Peptide P5-18], the HR entry in assay [1] was “-”.

As for SEEEEELDLLLAFIAAALGG [Peptide P5-14], in assay [1], the HR result is given as “Weak+”.

Turning to SEEEEELDLLLAFIAAALQ [Peptide P5-15], the HR entry in assay [1] is “-”.

For the sequence SEEEEELDLLLAFIAAALQQ [Peptide P5-8], the HR result in assay [1] was “Weak+”. For the same sequence, in assay [2], the “Effectiveness Covered (%)” value is recorded as 99* % and the “Effectiveness Uncovered (%)” value is listed as 99* %.

As for SEEEEELDLLLAFIAAALS [Peptide P5-16], in assay [1], the HR entry is given as “-”.

With SEEEEELDQLLLAFIAAAL [Peptide P5-24], in assay [1], the HR result was “-”.

For SEEEEELDQLLLAFIAAALQQ [Peptide P5-23], the HR result in assay [1] is on record as “Weak+”.

Take SEEELDLLLAFIAAALDD [Peptide P5-13]: in assay [1], the HR entry is “-”.

As to SEEELDLLLAFIAAALEE [Peptide P5-11], the HR result in assay [1] is “-”.

Take SEEELDLLLAFIEEELEE [Peptide P5-12]: in assay [1], the HR result is on record as “-”.

For SEEELDLLLMFIMMMLEE [Peptide P5-29], the HR result in assay [1] is listed as “+”.

Regarding SEEELDQLLLMFIMMMLEE [Peptide P5-30], the HR result in assay [1] is on record as “+”.

For the sequence SEEELELLLAFIAAALEEEE [Peptide P5-22], the HR entry in assay [1] is “+”. In assay [2], the “Effectiveness Covered (%)” value worked out at 62% and the “Effectiveness Uncovered (%)” value is listed as 82%.

With SEEEQLDLLLMFIMMMLEE [Peptide P5-31], in assay [1], the HR entry is “+”.

As for SEEEQLDQLLLMFIMMMLEE [Peptide P5-32], the HR result in assay [1] is recorded as “+”.

Turning to SEEEQLDQLLLMFIMMMLQEE [Peptide P5-34], the HR result in assay [1] is “+”.

For the sequence SEEQEEELLAFIAAALQQEE [Peptide P5-58], the HR result in assay [1] was “-”.

Take SEEQEELLLAFIAAALQQEE [Peptide P5-56]: in assay [1], the HR result is recorded as “-”.

As for SEEQLDLLLAFIAAALQEE [Peptide P5-26], the HR entry in assay [1] is “+”.

For SEEQLDLLLAFIAAALQQEE [Peptide P5-87], in assay [1], the HR entry is “-”.

Turning to SEEQLDLLLEFIEEELQQEE [Peptide P5-48], the HR result in assay [1] is “-”.

As to SEEQLDLLLMFIMMMLQQEE [Peptide P5-47], the HR entry in assay [1] is “+”. For the same sequence, in assay [2], the “Effectiveness Covered (%)” value was 78* % and the “Effectiveness Uncovered (%)” value was 87* %.

As for SEEQLDQLLLAFIAAALEE [Peptide P5-28], the HR entry in assay [1] is reported as “Weak+”.

Regarding SEEQLEELLAFIAAALQQEE [Peptide P5-57], in assay [1], the HR entry is “+”.

Turning to SEEQLELLLAFIAAALQEE [Peptide P5-88], the HR entry in assay [1] is listed as “+”.

Turning to SELELLLAFIAAALEEEEE [Peptide P5-19], the HR result in assay [1] is “+”.

In the case of SELELLLEFIEEELEE [Peptide P5-20], in assay [1], the HR result is listed as “-”.

Consider SQAGSEQLDLLLMFIMMMLQQ [Peptide P5-73], for which the HR result in assay [1] is reported as “+”.
